{"source": "paper PMC4509821", "about": "(International journal of antimicrobial agents, 2015)", "key": {"[1]": {"system": "Streptococcus sanguinis SK36", "assay": "Streptococcus sanguinis cell growth and biofilm formation", "format": "cell-based", "conditions": "1.56 μM, P > 0.05"}, "[2]": {"target": "S. mutans dihydrofolate reductase (SmDHFR) (Streptococcus mutans, UniProt Q8DUI2)", "assay": "SmDHFR enzymatic activity assay", "format": "biochemical"}, "[3]": {"system": "S. mutans biofilm", "assay": "Streptococcus mutans biofilm formation inhibition", "format": "cell-based", "conditions": "16 h, read-out: IC50 Biofilm"}, "[4]": {"system": "Streptococcus mutans UA159", "assay": "Streptococcus mutans cell growth inhibition", "format": "cell-based"}, "[5]": {"system": "Streptococcus gordonii DL1", "assay": "Streptococcus gordonii cell growth and biofilm formation", "format": "cell-based", "conditions": "1.56 μM, P > 0.05"}}}
{"smiles": "COc1cc(NCc2ccc3nc(N)nc(N)c3c2C)cc(OC)c1OC", "note": "[TMQ, trimetrexate]", "values": [{"measurement": "inhibition of biofilm formation of S. sanguinis", "setting": "[1]", "value": "did not inhibit"}, {"measurement": "IC50", "setting": "[2]", "value": "0.0022 ± 0.0007", "unit": "µM"}, {"measurement": "Ki", "setting": "[2]", "value": "0.0013 ± 0.0004", "unit": "µM"}, {"measurement": "IC50", "setting": "[3]", "value": "0.0491 ± 0.0041", "unit": "µM"}, {"measurement": "MIC", "setting": "[4]; UA159", "value": 0.0488, "unit": "µM"}, {"measurement": "IC50", "setting": "[4]; UA159, read-out: IC50 Growth", "value": "0.0425 ± 0.00322", "unit": "µM"}, {"measurement": "inhibition of biofilm formation of S. gordonii", "setting": "[5]", "value": "did not inhibit"}]}
